Reference: patent publication US20240316042A1 (AbbVie Inc., priority 2023, published 2024)
Converted amounts (≈) assume the structure as drawn. Read-outs that look alike come from different tables or passages of the source.

Legend:
[1] = Phase 1 open-label study in pediatric subjects with severe atopic dermatitis: pharmacokinetics on Day 7; type: in vivo, human; settings: for half-life / Cmax: human, plasma, oral; for half-life: read-out: t1/2, harmonic mean (pseudo standard deviation) (converted)
Procedure: (§1) This was an open-label, multiple-dose study. AD patients (N=35) were enrolled into four cohorts (Cohort 1, 6 to <12 years with low dose; Cohort 2, 6 to <12 years with high dose; Cohort 3, 2 to <6 years with low dose; Cohort 4, 2 to <6 years with high dose). […] PK was evaluated on Day 7 post first dose. Safety was evaluated throughout the study. Exploratory efficacy parameters were collected at specified timepoints.
(§2) Part 1 was a multiple-dose, open-label, multiple-cohort study that consisted of two sequential multiple-ascending dose groups (Low Dose and High Dose levels) in the two age groups. (Group 1: 6 to <12 years and Group 2: 2 to <6 years).
There was one additional subject who was enrolled in Cohort 3 but withdrew informed consent before PK assessment. This subject was therefore not included in PK analyses.

[2] = tested on: pediatric subjects with severe atopic dermatitis; experiment: Phase 1 open-label study in pediatric subjects with severe atopic dermatitis: safety
Procedure: as §1, §2

[3] = Population pharmacokinetic analyses of upadacitinib exposure in adults / adult RA patients; settings: for median average plasma exposure over a dosing interval: adult RA patients; for AUC0-24 at steady state, model-estimated: adults
Procedure: In Part 1, the dose was administered according to three body weight categories.
The doses selected for this study account for the difference in oral bioavailability between the extended-release tablet formulation and the oral solution. […] Doses were adjusted during the study for any of the body weight categories after review of results from the subjects who completed Part 1.

[4] = tested on: pediatric patients with pcJIA; experiment: Phase 1 open-label study in pediatric pcJIA patients: efficacy (JIA ACR, JADAS-27, C-HAQ);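 note: values come from an interim analysis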
Procedure: Based on these parameters, the following composite efficacy endpoints were evaluated: • JIA ACR pediatric 30/50/70/90/100 responses • Change from Baseline in JADAS10/27/71 responses, as well as JADAS-based criteria for low disease activity and remission (if deemed useful and appropriate).
This was an interim analysis.
(§3) This interim analysis includes all available pharmacokinetic and safety data and efficacy data collected through Week 48, excluding patients enrolled in the long-term safety cohort.

[5] = tested on: pediatric patients with pcJIA; experiment: Phase 1 open-label study in pediatric pcJIA patients: safety (adverse events)
Procedure: (§4) Part 1 was a multiple-dose, open-label, multiple-cohort study. Two sequential multiple-ascending dose levels (Low Dose and High Dose levels) were evaluated in the 12 to <18 years age group (Group 1), and one dose level (Low Dose) was evaluated in the two younger age groups (Group 2: 6 to <12 years, and Group 3: 2 to <6 years). Low Dose and High Dose cohorts in age group 1 enrolled 9 subjects each.
(§5) The study enrolled at least 10 subjects below 30 kg. Recruitment of subjects was conducted through a staggered approach based on age. […] Part 3 was an additional safety cohort. […] Part 3 was open to age groups in which Part I enrollment was completed. […] Doses were adjusted during the study for any of the body weight categories after review of results from the subjects who completed Study Part 1.
This was an interim analysis.
as §3

[6] = tested on: pediatric subjects with severe atopic dermatitis; experiment: Phase 1 open-label study in pediatric subjects with severe atopic dermatitis: efficacy (vIGA-AD, EASI); type: in vivo, human; settings: Week 12 (as observed)
Procedure: as §1
During Part 2 of the study, concomitant topical medications for AD were allowed during the study per investigator discretion.
No formal statistical comparisons were planned.

[7] = Phase 1 open-label study in pediatric pcJIA patients: pharmacokinetics at steady state (Day 7); type: in vivo, human; settings: for AUC / half-life: human, plasma, oral; for AUC / half-life / AUC0-24, geometric mean / CLss/F, geometric mean / CLss/F_adjusted (adjusted for bioavailability), geometric mean: Day 7; for AUC: read-out: AUCtau, geometric mean; for half-life: read-out: Functional t1/2, harmonic mean (converted)
Procedure: as §4, §5
In Part 1, the dose was administered according to three body weight categories. Subjects were categorized based on age group, and the dose administered for seven consecutive days will be based on three different body weight categories per dose level shown in Table 2.
Patients (N=51) diagnosed with pcJIA were enrolled into one of four groups in an open-label, multiple-dose study (Group 1, 12 to <18 years, low dose; Group 2, 12 to <18 years, high dose; Group 3, 6 to <12 years, low dose; Group 4, 2 to <6 years, low dose). […] Pharmacokinetic assessment was performed at steady state on Study Day 7, after which all patients might continue the study with low dose.

[8] = Solubility of upadacitinib in different aqueous media at 37° C.; type: physicochemical; settings: 50 mM carbonate buffer, pH 9.11
Source text: For pediatric use, an oral solution was developed to improve acceptability (palatability and swallowability), stability, and manufacturability. […] Thus, low pH buffers such as citrate, phosphate, tartrate, and formate are suitable to prepare the oral solution. […] Citrate buffer was selected because it has favorable pKa (˜3.1), which is close to the final pH of the oral solution.

[9] = AD Cohort 1: 6 to <12 years, Low Dose, IR Solution, Day 7
[10] = AD Cohort 2: 6 to <12 years, High Dose, ER Tablet, Day 7
[11] = AD Cohort 2: 6 to <12 years, High Dose, IR Solution, Day 7
[12] = AD Cohort 3: 2 to <6 years, Low Dose, IR Solution, Day 7
[13] = AD Cohort 4: 2 to <6 years, High Dose, IR Solution, Day 7
[14] = Enrollment on or after protocol v4.0, N 7
[15] = Enrollment up to protocol v3.0, N 20
[16] = pcJIA Group 3: 6 to <12 years, low dose, BID solution
[17] = pcJIA Group 4: 2 to <6 years, low dose, BID solution
[18] = pcJIA Group 1: 12 to <18 years, low dose, QD tablet
[19] = pcJIA Group 2: 12 to <18 years, high dose, QD tablet
[20] = pcJIA Group 3: 6 to <12 years, low dose, QD tablet
[21] = pcJIA Group 3: 6 to <12 years, low dose, tablet and solution combined

## CC[C@@H]1CN(C(=O)NCC(F)(F)F)C[C@@H]1c1cnc2cnc3[nH]ccc3n12 [upadacitinib, (3S,4R)-3-ethyl-4-(3H-imidazo[1,2-a]pyrrolo[2,3-e]pyrazin-8-yl)-N-(2,2,2-trifluoroethyl)pyrrolidine-1-carboxamide]
[1]; AD Cohort 1: 6 to <12 years, Low Dose, ER Tablet, Day 7
  CLss/F, geometric mean (mean, % CV): 31.5 (34.2, 48) L/h
[1]; [9]
  CLss/F, geometric mean (mean, % CV): 19.3 (20.2, 31) L/h
  half-life: 2.35 h
[1]; [10]
  CLss/F, geometric mean (mean, % CV): 39.1 (42.3, 37) L/h
  half-life: 4.93 h
[1]; [11]
  CLss/F, geometric mean (mean, % CV): 23.0 (23.6, 27) L/h
  half-life: 1.68 h
[1]; [12]
  CLss/F, geometric mean (mean, % CV): 15.6 (18.6, 52) L/h
  half-life: 1.67 h
[1]; [13]
  CLss/F, geometric mean (mean, % CV): 20.7 (23.6, 66) L/h
  half-life: 2.25 h
[1]; AD Cohort 2: 6 to <12 years, high dose, Day 7 (Example 4), read-out: Geometric mean Cmax at steady-state
  Cmax: 95.5 ng/mL
[1]; AD Cohort 4: 2 to <6 years, High Dose, IR Solution, Day 7, read-out: Cmax, geometric mean (mean, % CV)
  Cmax: 96.9 ng/mL
[1]; AD Cohort 4: 2 to <6 years, high dose, Day 7 (Example 4), read-out: Geometric mean Cmax at steady-state
  Cmax: 101 ng/mL
[2]; AD Part 2, n=3
  discontinuation of upadacitinib due to adverse event: 9.7%
[2]; children with severe AD
  most common AEs: COVID infection, headache, and abdominal discomfort
  new safety risks compared to the known safety profile: No new safety risks were identified
  overall safety and tolerability: generally safe and well tolerated
[3]; 15 mg QD extended-release formulation
  median average plasma exposure over a dosing interval: 15.1 ng/mL
[3]; 30 mg QD extended-release formulation
  median average plasma exposure over a dosing interval: 30.0 ng/mL
[3]; adult patients with RA, phase 3 trials, 15 mg ER tablet daily
  Median AUC0-24 at steady state (5th, 95th percentile): 358 (234, 701) ng·h/mL
[3]; multiple 15 mg QD doses
  AUC0-24 at steady state, model-estimated: 362 ng·h/mL
[3]; multiple 30 mg QD doses
  AUC0-24 at steady state, model-estimated: 720 ng·h/mL
[4]; Week 12, Overall
  C-HAQ, Change from Baseline Mean ([…]% CI): −0.45 (−0.63, −0.27)
  C-HAQ, Change from Baseline Median (Min, Max): −0.38 (−1.9, 1.1)
  ESR, Change from Baseline Median (Min, Max): −4.0 (−41, 26) ^
  Patient/Parent Global Assessment of Overall Well Being (VAS), Change from Baseline Median (Min, Max): −26.0 (−81, 37) ^
  Physician's Global Assessment of Disease Activity (VAS), Change from Baseline Median (Min, Max): −49.0 (−100, 9) ^
  Total Number of Active Joints, Change from Baseline Median (Min, Max): −8.0 (−25, 0) ^
[4]; Week 12, age 2 to <6 years
  C-HAQ, Change from Baseline Mean ([…]% CI): −0.31 (−0.77, 0.15)
  C-HAQ, Change from Baseline Median (Min, Max): −0.38 (−1.3, 1.1)
  ESR, Change from Baseline Median (Min, Max): −7.0 (−39, 2) ^
  Patient/Parent Global Assessment of Overall Well Being (VAS), Change from Baseline Median (Min, Max): −38.0 (−81, 37) ^
  Physician's Global Assessment of Disease Activity (VAS), Change from Baseline Median (Min, Max): −49.0 (−72, −25)
  Total Number of Active Joints, Change from Baseline Median (Min, Max): −6.0 (−12, −3)
[4]; Week 12, age 6 to <12 years
  C-HAQ, Change from Baseline Mean ([…]% CI): −0.64 (−0.95, −0.34)
  C-HAQ, Change from Baseline Median (Min, Max): −0.38 (−1.9, 1.1)
  ESR, Change from Baseline Median (Min, Max): −4.0 (−41, 7) ^
  Patient/Parent Global Assessment of Overall Well Being (VAS), Change from Baseline Median (Min, Max): −29.0 (−61, 9) ^
  Physician's Global Assessment of Disease Activity (VAS), Change from Baseline Median (Min, Max): −55.0 (−100, −28)
  Total Number of Active Joints, Change from Baseline Median (Min, Max): −8.0 (−24, −4)
[4]; Week 12, age 12 to <18 years
  C-HAQ, Change from Baseline Mean ([…]% CI): −0.33 (−0.58, −0.09)
  C-HAQ, Change from Baseline Median (Min, Max): −0.31 (−1.1, 0.5)
  ESR, Change from Baseline Median (Min, Max): −2.5 (−17, 26) ^
  Patient/Parent Global Assessment of Overall Well Being (VAS), Change from Baseline Median (Min, Max): −23.0 (−45, 8) ^
  Physician's Global Assessment of Disease Activity (VAS), Change from Baseline Median (Min, Max): −41.0 (−94, 9) ^
  Total Number of Active Joints, Change from Baseline Median (Min, Max): −9.0 (−25, 0) ^
[5]; pcJIA part 1, through 7 days
  patients reporting serious AEs or AEs leading to treatment discontinuation: no patients
[5]; pcJIA part 1, through 7 days, 8 out of 51 patients
  patients reporting adverse events (AEs): 15.7%
[5]; pcJIA part 2 and part 3, 52 out of 57 patients
  patients reporting AEs: 91.2%
[5]; pcJIA part 2 and part 3, n=2/57
  AE of special interest: neutropenia: 3.5%
[5]; pcJIA part 2 and part 3, n=3/57
  AE of special interest: hepatic disorder: 5.3%
[5]; pcJIA part 2 and part 3, n=6/57
  AE of special interest: elevated creatine phosphokinase: 10.5%
[5]; pcJIA, 12 to <18 years of age group, 2 of 19
  patients reporting AEs leading to treatment discontinuation: 10.5%
[5]; pcJIA, 12 to <18 years of age group, six out of 19
  patients reporting serious AEs: 31.6%
[5]; pcJIA, during the study
  uveitis events: no uveitis events occurred
[5]; pcJIA, interim analysis
  deaths: No deaths occurred
[5]; pediatric patients with pcJIA
  overall safety and tolerability: safe and well tolerated
[6]; Age 2 to <6 years, N 12
  EASI 75, Responder: 9 (75.0) n (%)
  vIGA-AD of 0 or 1 with at least two grades of reduction from baseline, Responder: 3 (25.0) n (%)
[6]; Age 6 to <12 years, N 15
  EASI 75, Responder: 10 (66.7) n (%)
  vIGA-AD of 0 or 1 with at least two grades of reduction from baseline, Responder: 6 (40.0) n (%)
[6]; [14]
  EASI 75, Responder: 7 (100) n (%)
  vIGA-AD of 0 or 1 with at least two grades of reduction from baseline, Responder: 3 (42.9) n (%)
[6]; [15]
  EASI 75, Responder: 12 (60.0) n (%)
  vIGA-AD of 0 or 1 with at least two grades of reduction from baseline, Responder: 6 (30.0) n (%)
[6]; Overall, N 27
  EASI 75, Responder: 19 (70.4) n (%)
  vIGA-AD of 0 or 1 with at least two grades of reduction from baseline, Responder: 9 (33.3) n (%)
[7]; [16]
  AUC: 198 ng·h/mL
  half-life: 2.39 h
  CLss/F_adjusted (adjusted for bioavailability), geometric mean: 19.7 L/h
[7]; [17]
  AUC: 184 ng·h/mL
  half-life: 2.33 h
  CLss/F_adjusted (adjusted for bioavailability), geometric mean: 15.0 L/h
[7]; pcJIA Group 1 (12 to <18 years), low-dose level
  Median AUC0-24: 278 ng·h/mL
[7]; [18]
  AUC0-24, geometric mean: 269 ng·h/mL
  CLss/F, geometric mean: 55.7 L/h
  CLss/F_adjusted (adjusted for bioavailability), geometric mean: 38.1 L/h
[7]; pcJIA Group 2 (12 to <18 years), high-dose level
  Median AUC0-24: 547 ng·h/mL
[7]; [19]
  AUC0-24, geometric mean: 553 ng·h/mL
  CLss/F, geometric mean: 46.5 L/h
  CLss/F_adjusted (adjusted for bioavailability), geometric mean: 31.8 L/h
[7]; [20]
  AUC0-24, geometric mean: 318 ng·h/mL
  CLss/F, geometric mean: 41.6 L/h
  CLss/F_adjusted (adjusted for bioavailability), geometric mean: 28.5 L/h
[7]; [21]
  AUC0-24, geometric mean: 346 ng·h/mL
  CLss/F_adjusted (adjusted for bioavailability), geometric mean: 24.7 L/h
[7]; pcJIA Group 4 (2 to <6 years), low-dose level
  Median AUC0-24: 360 ng·h/mL
[7]; pcJIA patients
  apparent oral clearance in relation to bodyweight: increased in pcJIA patients with increasing bodyweight
[8]
  solubility: 199 ± 6 µg/mL (≈ 523 µM)
